Source: patent publication US8772499B2, “TRPV3 modulators” (AbbVie Inc., priority 2011, dated 2014)
Like-named read-outs stand apart in the source and are kept apart here.

Experiments:
[1] = target: T1, human TRPV3 (Homo sapiens, UniProt Q8NET8); assay: In vitro antagonism of recombinant human TRPV3 activation (FLIPR Tetra calcium assay); format: cell-based; conditions: HEK293 cells stably expressing human TRPV3, agonist 2-APB at 80 μM
T1 construct: expressed in transfected cells
T1 sequence (Q8NET8 1-790): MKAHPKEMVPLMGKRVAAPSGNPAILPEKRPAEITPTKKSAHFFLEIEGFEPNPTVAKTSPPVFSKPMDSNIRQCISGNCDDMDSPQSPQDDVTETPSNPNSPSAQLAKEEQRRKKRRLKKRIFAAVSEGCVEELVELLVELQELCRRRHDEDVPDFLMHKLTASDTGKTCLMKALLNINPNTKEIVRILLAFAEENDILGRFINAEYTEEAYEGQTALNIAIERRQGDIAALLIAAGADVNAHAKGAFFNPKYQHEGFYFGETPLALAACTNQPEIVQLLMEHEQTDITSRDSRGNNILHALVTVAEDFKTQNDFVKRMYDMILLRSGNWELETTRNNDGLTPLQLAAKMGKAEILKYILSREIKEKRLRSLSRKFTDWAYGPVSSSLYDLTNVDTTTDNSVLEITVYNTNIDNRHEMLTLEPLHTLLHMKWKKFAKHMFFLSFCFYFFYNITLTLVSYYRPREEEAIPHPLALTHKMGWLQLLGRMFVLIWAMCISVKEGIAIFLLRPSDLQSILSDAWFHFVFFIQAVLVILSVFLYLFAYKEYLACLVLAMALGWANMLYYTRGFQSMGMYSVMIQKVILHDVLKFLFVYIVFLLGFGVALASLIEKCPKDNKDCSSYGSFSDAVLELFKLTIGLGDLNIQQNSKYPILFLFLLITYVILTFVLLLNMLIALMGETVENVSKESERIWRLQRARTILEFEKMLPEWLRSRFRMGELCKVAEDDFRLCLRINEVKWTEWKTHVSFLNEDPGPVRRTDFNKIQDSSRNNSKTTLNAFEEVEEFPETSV
Outline: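 Calcium flux read over a 10 min run: compound added at 10 s to Calcium-4-loaded human TRPV3-HEK293 cells, agonist 2-APB (80 μM, its EC80) after 3 min. IC50 derived from peak-minus-baseline signal as percentage of uninhibited 2-APB response, typically averaged over at least two runs.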

[2] = In vitro human microsomal stability assay; format: in vitro ADME; conditions: human, microsomes, 0.5 h, 0.5 μM, pH 7.4
Outline: (§1)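 Sprague-Dawley rat or human liver microsomes; 37° C.; NADPH cofactor, also spiked into time-zero samples.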

[3] = In vitro rat microsomal stability assay; format: in vitro ADME, rat (Sprague-Dawley); conditions: Sprague-Dawley, rat, microsomes, 0.5 h, 0.5 μM, pH 7.4
Outline: as §1

[4] = actual measured value shown parenthetically, in most cases average of at least two runs, read-out: IC50
[5] = reported range, read-out: IC50 (range class)

| SMILES | IC50 [1, 4] [µM] | IC50 [1, 5] [µM] | HUMAN MICROSOMAL STABILITY (% REMAINING AFTER 30 MINUTES) [2] [%] | RAT MICROSOMAL STABILITY (% REMAINING AFTER 30 MINUTES) [3] [%] |
| --- | --- | --- | --- | --- |
| OC(C1CCc2cccnc21)C1(c2cccc(C(F)(F)F)c2)CCC1 (stereo not drawn) [Example 186, (syn)-6,7-dihydro-5H-cyclopenta[b]pyridin-7-yl{1-[3-(trifluoromethyl)-phenyl]cyclobutyl}methanol] | > 20 | > 20 | 0.18 | <0.01 |
| CON=C1CC(c2ccc(OC(F)(F)F)cc2)([C@H](O)c2ccccn2)C1 (stereo partly drawn) [Example 249, (S)-{3-(methoxyimino)-1-[4-(trifluoromethoxy)phenyl]cyclobutyl}(pyridin-2-yl)methanol] | 3.93 | – | 61 | 3.2 |
| OC(c1ccccn1)C1(C2CCC(C(F)(F)F)CC2)CCC1 (stereo not drawn) [Example 280, pyridin-2-yl{1-[4-(trifluoromethyl)cyclohexyl]cyclobutyl}methanol] | 1.95 | – | 9.0 | <0.01 |
| OC1CC(c2ccc(Cl)c(Cl)c2)(C(O)c2ncccn2)C1 (single isomer, unassigned) [Example 312] | 1.96 | – | >85 | >85 |
| OC1CC(c2cccc(OC(F)(F)F)c2)(C(O)c2ccccn2)C1 (single isomer, unassigned) [Example 273] | 0.09 | – | 42 | 65 |
| OC(c1ccccn1)C1(c2ccc(F)c(F)c2)CCC1 (stereo not drawn) [Example 4, [1-(3,4-difluorophenyl)cyclobutyl](pyridin-2-yl)methanol] | 0.46 | – | 19 | 4.2 |
| OC(c1ccccn1)C1(c2ccc(OC(F)(F)F)cc2)CC(F)(F)C1 (stereo not drawn) [Example 112, {3,3-difluoro-1-[4-(trifluoromethoxy)phenyl]cyclobutyl}(pyridin-2-yl)-methanol] | 0.3 | – | 75 | 75 |
| O[C@H](c1ccccn1)C1(c2ccc(Cl)c(Cl)c2)CCC1 [Example 26, (S)-[1-(3,4-dichlorophenyl)cyclobutyl](pyridin-2-yl)methanol] | 0.31 | – | 6.3 | 1.0 |
| OC(c1ccccn1)C1(c2nc3ccc(F)cc3s2)CCC1 (stereo not drawn) [Example 300, [1-(6-fluoro-1,3-benzothiazol-2-yl)cyclobutyl](pyridin-2-yl)methanol] | 4.92 | – | 35 | 0.020 |
| O=C1CC(c2ccnc(C(F)(F)F)c2)(C(O)c2ccccn2)C1 (stereo not drawn) [Example 298, 3-[hydroxy(pyridin-2-yl)methyl]-3-[2-(trifluoromethyl)pyridin-4-yl]-cyclobutanone] | > 20 | > 20 | 80 | 59 |
| OC(c1ccccn1)C1(c2ccc(Cl)c(Cl)c2)CC(F)(F)C1 (stereo not drawn) [Example 82, [1-(3,4-dichlorophenyl)-3,3-difluorocyclobutyl](pyridin-2-yl)methanol] | 0.78 | – | 35 | 16 |

Results, then the compound that gave them:

| IC50 [1, 4] [µM] | IC50 [1, 5] [µM] | HUMAN MICROSOMAL STABILITY (% REMAINING AFTER 30 MINUTES) [2] [%] | RAT MICROSOMAL STABILITY (% REMAINING AFTER 30 MINUTES) [3] [%] | SMILES |
| --- | --- | --- | --- | --- |
| > 20 | > 20 | 0.65 | <0.01 | OC(C1CCc2cccnc21)C1(c2cccc(OC(F)(F)F)c2)CCC1 (stereo not drawn) [Example 189, (anti)-6,7-dihydro-5H-cyclopenta[b]pyridin-7-yl{1-[3-(trifluoromethoxy)-phenyl]cyclobutyl}methanol] |
| > 20 | > 20 | >85 | 51 | OC(c1ccccn1)C1(c2ccc(OC(F)(F)F)cc2)CCNCC1 (stereo not drawn) [Example 144, pyridin-2-yl{4-[4-(trifluoromethoxy)phenyl]piperidin-4-yl}methanol] |
| > 20 | > 20 | 0.46 | <0.01 | OC(C1CCCc2cccnc21)C1(c2ccc(C(F)(F)F)cc2)CCC1 (single isomer, unassigned) [Example 184, (syn)-5,6,7,8-tetrahydroquinolin-8-yl{1-[4-(trifluoromethyl)phenyl]-cyclobutyl}methanol] |
| > 20 | > 20 | 9.2 | <0.01 | OC(C1CCCc2cccnc21)C1(c2ccc(OC(F)(F)F)cc2)CCC1 (single isomer, unassigned) [Example 178, (syn)-5,6,7,8-tetrahydroquinolin-8-yl{1-[4-(trifluoromethoxy)phenyl]-cyclobutyl}methanol] |
| 5.25 | – | >85 | >85 | O[C@H](c1ccccn1)[C@]1(c2ccc(C(F)(F)F)cc2)C[C@H](O)C1 [Example 200, cis-3-[(S)-hydroxy(pyridin-2-yl)methyl]-3-[4-(trifluoromethyl)phenyl]-cyclobutanol] |
| 1.6 | – | >85 | >85 | NC1CCCC1C(O)C1(c2cccc(C(F)(F)F)c2)CCC1 (stereo not drawn) [Example 204, (2-aminocyclopentyl) {1-[3-(trifluoromethyl)phenyl]cyclobutyl}methanol] |
| 2.87 | – | >85 | 3.9 | NC1CCCCC1C(O)C1(c2cccc(C(F)(F)F)c2)CCC1 (stereo not drawn) [Example 212, (2-aminocyclohexyl) {1-[3-(trifluoromethyl)phenyl]cyclobutyl}methanol] |
| 9.14 | – | 5.6 | <0.01 | OC(C1CCc2cccnc21)C1(c2ccc(Cl)c(Cl)c2)CCC1 (stereo not drawn) [Example 168, (syn)-[1-(3,4-dichlorophenyl)cyclobutyl][6,7-dihydro-5H-cyclopenta[b]-pyridin-7-yl]methanol] |
| 3.87 | – | >85 | >85 | NC1CCCC1C(O)C1(c2ccc(C(F)(F)F)cc2)CCC1 (stereo not drawn) [Example 205, (2-aminocyclopentyl) {1-[4-(trifluoromethyl)phenyl]cyclobutyl}methanol] |
| 5.94 | – | >85 | >85 | OC1CC(c2ccc(C(F)(F)F)cc2)([C@H](O)c2ccccn2)C1 (mixture of isomers) [Example 166, 3-[(S)-hydroxy(pyridin-2-yl)methyl]-3-[4-(trifluoromethyl)phenyl]-cyclobutanol] |
